# Legend:
# [1] = biological target: T1, recombinant human plasminogen activator inhibitor-1 (PAI-1) (Homo sapiens, UniProt P05121); test: Primary Screen for the PAI-1 Inhibition; format: biochemical; conditions: for inhibition at 25 µM: 25 μM test compound, read-out: % Inhib. 25 μM; for inhibition at 100 µM: 100 μM test compound, read-out: % Inhib. 100 μM
# T1 construct: purchased Molecular Innovations, Royal Oak, Mich
# Outline: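 Compound (1-100 μM final, ≤0.2% DMSO) was preincubated for 1 h at room temperature with 140 nM recombinant human PAI-1 at pH 6.6. tPA was then added at 70 nM for 30 min. Residual tPA activity was measured with Spectrozyme-tPA (A405 at 0 and 60 min) and taken as relative PAI-1 inhibition.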
# [2] = biological target: T1, recombinant human plasminogen activator inhibitor-1 (PAI-1); test: Modification of the Primary Screen for the PAI-1 Inhibition (IC50); format: biochemical
# Description: Test compounds are dissolved in DMSO at a final concentration of 10 mM, then diluted 100× in physiologic buffer. The inhibitory assay is initiated by the addition of the test compound (1-100 μM final concentration, maximum DMSO concentration of 0.2%) in a pH 6.6 buffer containing 140 nM recombinant human plasminogen activator inhibitor-1 (PAI-1; Molecular Innovations, Royal Oak, Mich.). Following a 1 hour incubation at room temperature, 70 nM of recombinant human tissue plasminogen activator (tPA) is added, and the combination of the test compound, PAI-1 and tPA is incubated for an additional 30 minutes. Following the second incubation, Spectrozyme-tPA (American Diagnostica, Greenwich, Conn.), a chromogenic substrate for tPA, is added and absorbance read at 405 nm at 0 and 60 minutes. Relative PAI-1 inhibition is equal to the residual tPA activity in the presence of the test compound and PAI-1. Control treatments include the complete inhibition of tPA by PAI-1 at the molar ratio employed (2:1), and the absence of any effect of the test compound on tPA alone.
# T1 sequence (P05121 24-402): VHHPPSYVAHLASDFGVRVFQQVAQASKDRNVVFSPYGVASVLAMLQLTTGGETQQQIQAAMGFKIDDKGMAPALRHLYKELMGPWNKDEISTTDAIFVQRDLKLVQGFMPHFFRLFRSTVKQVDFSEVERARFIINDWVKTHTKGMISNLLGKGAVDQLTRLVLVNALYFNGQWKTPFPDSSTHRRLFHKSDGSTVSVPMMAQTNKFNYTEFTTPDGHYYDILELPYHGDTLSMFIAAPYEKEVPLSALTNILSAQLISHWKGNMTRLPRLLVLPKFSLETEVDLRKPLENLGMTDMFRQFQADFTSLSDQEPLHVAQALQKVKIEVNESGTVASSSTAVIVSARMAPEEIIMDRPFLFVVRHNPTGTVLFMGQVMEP
inhibition at 25 µM [1],inhibition at 100 µM [1],IC50 [2],melting point,SMILES
38%,75%,3.2 µM,194 to 198 °C,"CCCCc1oc2ccccc2c1C(=O)Nc1ccc2cc(OCc3nn[nH]n3)ccc2c1 [Example 3, 2-Butyl-benzofuran-3-carboxylic acid [6-(2H-tetrazol-5-ylmethoxy)-naphthalen-2-yl]-amide]"
20%,98%,4.3 µM,208 to 211 °C,"CCCCc1oc2ccccc2c1C(=O)NCc1ccc2c(-c3ccc(Cl)cc3)c(OCc3nnn[nH]3)ccc2c1 [Example 26, 2-Butyl-benzofuran-3-carboxylic acid [5-(4-chloro-phenyl)-6-(1-tetrazol-5-ylmethoxy)-naphthalen-2-ylmethyl]-amide]"
22%,100%,20.2 µM,180 to 183 °C,"CCCCc1oc2ccccc2c1C(=O)NCc1ccc2c(-c3ccccc3)c(OCC(=O)O)ccc2c1 [Example 28, (6-{[(2-Butyl-benzofuran-3-carbonyl)-amino]-methyl}-1-phenyl-naphthanen-2-yloxy)-acetic acid]"
23%,100%,8.5 µM,–,"CCCCc1oc2ccccc2c1C(=O)NCc1ccc2c(-c3ccc(Cl)cc3)c(OC(Cc3ccccc3)C(=O)O)ccc2c1 (stereo not shown) [Example 29, 2-[6-{[(2-Butyl-benzofuran-3-carbonyl)-amino]-methyl}-1-(4-chloro-phenyl)-naphthalen-2-yloxy]-3-phenyl-propionic acid]"
18%,80%,11.8 µM,–,"CCCc1c(C(=O)NCc2ccc3c(Br)c(OC(Cc4ccccc4)C(=O)O)ccc3c2)cnn1-c1ccccc1 (stereo not shown) [Example 54, 2-(1-Bromo-6-{[(1-phenyl-5-propyl-1H-pyrazole-4-carbonyl)-amino]-methyl}-naphthalen-2-yloxy)-3-phenyl-propionic acid]"
84%,100%,1.9 µM,160 to 163 °C,"CC(C)(C)c1cc(C(=O)NCc2ccc3c(Br)c(OC(Cc4ccccc4)C(=O)O)ccc3c2)cc(C(C)(C)C)c1 (stereo not shown) [Example 56, 2-{1-Bromo-6-[(3,5-di-tert-butyl-benzoylamino)-methyl]-naphthalen-2-yloxy}-3-phenyl-propionic acid]"
24%,98%,5.5 µM,–,"O=C(NCc1ccc2c(Br)c(OC(Cc3ccccc3)C(=O)O)ccc2c1)c1cccc(Oc2ccccc2)c1 (stereo not shown) [Example 57, 2-{1-Bromo-6-[(3-phenoxy-benzoylamino)-methyl]-naphthalen-2-yloxy}-3-phenyl-propionic acid]"
12%,78%,36.5 µM,–,"O=C(O)COc1ccc2cc(CNC(=O)c3cc(-c4ccccc4Cl)oc3C(F)(F)F)ccc2c1 [Example 81, [6-({[5-(2-Chloro-phenyl)-2-trifluoromethyl-furan-3-carbonyl]-amino}-methyl)-naphthalen-2-yloxy]-acetic acid]"
